Test results published in article PMC10318527, “Utilization of dietary mixed-linkage β-glucans by the Firmicute Blautia producta” (The Journal of Biological Chemistry, 2023).

Key:
[1] = system: β-glucan utilization locus of B. producta; test: RT-qPCR of β-glucan utilization locus genes; assay type: cell-based, Blautia producta ATCC 27340
Protocol: Changes in the transcript expression levels of the β-glucan utilization locus of B. producta were performed by RT-qPCR. B. producta was initially cultured in 5 ml of GAM for 24 h and cells were spun down by centrifugation and washed three times with sterile PBS. […] Immediately, 300 μl saturated phenol with citrate buffer (pH 4.3, […] Sigma Aldrich) was added, and the mixed solution was incubated at 60 °C for 5 min with mild shaking. After that, it was centrifuged at 15,000 g for 5 min, and the upper aqueous phase was transferred into a new Eppendorf tube. It was mixed with three volumes of chilled ethanol and incubated for 30 min at -80 °C. The precipitate was then collected by centrifugation at the same speed, the pellet was washed with 70% ethanol twice, and the final white residue was dissolved in 100 to 500 μl of distilled water. The concentration of total RNA was calculated by a spectrophotometer at 260 nm. If a residual amount of DNA was observed, DNase-1 treatment was also given, following the manufacturer's instructions (AMPD1, Sigma Aldrich). About 2 μg total RNA was immediately used for reverse transcription using AccuScript High Fidelity cDNA Synthesis Kit (Agilent). RT-qPCR was performed in a 96-well plate on a CFX96 qPCR system (BioRad) using SYBR Green Master (BioRad), using the primers mentioned in Table S2. The qPCR reactions were executed in 10 μl, consisting of 5 μl of SYBR green mix, 30 ng of cDNA, and one pmol of each primer of a gene of the locus or 16S rRNA (Table S2). […] The 2^ˆ-ΔΔCt method calculated the expression of each gene and normalized data to 16S rRNA transcript level. Finally, the expression level of each gene was calculated as fold change compared with cultures of a minimal medium containing 1% glucose. Three technical replicates were used for bar generation of each gene expression; each bar represents average values and error bars indicate the standard errors of three technical replicates.

[2] = system: BPGH16 mutant R331A; test: Kinetics of BPGH16 mutant R331A (DNS assay); assay type: biochemical, Blautia producta ATCC 27340
Protocol: The residues R331, L358, E379, D381, E384, W362, and H398 of BpGH16MLG were mutated to Ala by the Q5Site-Directed Mutagenesis Kit (New England Biolabs, UK, catalogue no. E0554S). Wild-type plasmid BpGH16-pET28a(+) was used as a template, and mutagenic forward and reverse primers were developed using NEBaseChanger with subtle modifications (Table S4). A 25 μl PCR cocktail was prepared for mutating each residue. The final concentration of Q5 Hot Start High-Fidelity 2X Master Mix was 1X, each primer was at 0.5 μM, the amount of used template was 20 ng, and the rest of the volume was made up of nuclease-free water. PCR was executed using the following conditions-initial denaturation was performed at 98 °C for 1 min, for each cycle-denaturation, annealing, and extension (72 °C) were set for 10 s, 20 s, and 7 min, respectively. A total of 25 cycles were performed, and the final extension was for 5 min 5 μl PCR products were loaded on 0.8% agarose gel to conform to the amplification of the mutagenic gene. Ligation of PCR products and cleavage of methylated template DNA was then performed using 5 μl KLD reaction buffer and 1 μl KLD enzyme cocktail at RT for 1 h. It was then transformed into E. coli TOP-10 cells and plasmids were isolated. The obtained plasmids were sequenced to confirm the mutation at the desired location. Once mutation was confirmed in a gene, the mutant plasmid was transformed into Rosetta (DE3) cells for protein expression. The mutant protein was then expressed as per the protocol mentioned earlier, and kinetics were performed with barley β-glucan.
Reactions were performed in 100 μl volume mixture using recombinant enzyme (final concentration at 0.1 mg/ml) in 50 mM sodium phosphate buffer (pH 5.7) at 37 °C for 1 h of incubation. Then, reactions were terminated by boiling for 5 min. Enzymatic assays were determined with 3,5- dinitrosalicylic acid (DNS) assay ([85]). In brief, 0.05 g Na2SO3 and 1 g DNS were mixed in a 50 ml water-containing reagent bottle and stirred about 6 h using a magnetic stirrer. After that, 200 μl phenol was added and made up to 100 ml. A working solution of DNS was prepared by adding 50 μl glucose (20% (w/v) stock) in prepared 100 ml of reagent mixtures and immediately used for experiments without adding NaOH. 80 μl DNS reagent was added to the reaction mixtures and incubated at 100 °C for 10 min, followed by ice-cooling for 10 min. Consequently, recorded the developed color spectrophotometrically at 575 nm ([85]). A standard curve generated by different concentrations of maltose was used for determining released reducing sugars in each case.

[3] = system: B. producta ATCC 27340; test: Growth of B. producta on β-glucans; assay type: cell-based, Blautia producta ATCC 27340; conditions: minimal medium containing 1% glucan
Protocol: Active culture of B. producta and culture conditions were maintained following the recently reported procedure ([31]). Once B. producta grew, cells were centrifuged, and the obtained supernatant was decanted. A pellet of cells was then washed three times with phosphate-buffered saline (PBS) and washed cells were suspended in 2 ml PBS. […] The growth assessment experiments were performed for 96 h, following our recently established protocol ([82]).

[4] = 1% barley β-glucan compared to glucose

Barley β-glucan
upregulation of bp1313 expression [1, 4]: 5.2 fold | upregulation of bp1314 expression [1, 4]: 3.9 fold | upregulation of bp1316 expression ([1]; barley MLG versus glucose): 4.7 fold | upregulation of bp1317 expression ([1]; barley MLG versus glucose): 5 fold | upregulation of bp1318 expression ([1]; barley MLG versus glucose): 4.5 fold | fold change in expression of transcriptional regulator bp1315 ([1]; barley β-glucan compared to glucose): 0.76 fold | increase in Km ([2]; R331A versus native enzyme): < 2 fold | reduction in kcat ([2]; R331A versus native enzyme): ~1.3 fold | Km ([2]; mutant R331A, DNS assay): 0.35 ± 0.05 mg/mL | kcat ([2]; mutant R331A, DNS assay): 48 ± 0.8 s⁻¹ | growth of B. producta on the glucan [3]: showed growth | growth of B. producta on the glucan ([3]; listed as barley MLG): able to grow
